According to PubChem BioAssay AID1963963 (Molecular Pharmacology Branch, DTP, NCI, 2024):
pIC50: −log10 of the molar value.

Test system: 958667-338-R-J2-PDC tumor spheroids viability
Experiment: Anticancer human tumor 958667-338-R-J2-PDC patient-derived colon adenocarcinoma cell line growth inhibition [PI3K]
Conditions: spheroids with HUVEC and MSC; for pIC50: curve of first compound; for viability, T/C: stronger effect = lower value; active means viability on the fitted dose curve at most 10% of control; inactive means the rest
Method in brief: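 High-throughput combination screen: PI3K inhibitors crossed with targeted small molecules on complex spheroids of tumor cells, HUVEC and MSCs at 37 degrees C, 5% CO2. Top concentration was at or near clinical Cmax (otherwise 10 microM), with half-log decrements.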

[1] = second compound 0.00316 µM, first compound 0.0316 µM
[2] = second compound 0.00316 µM, first compound 0.1 µM
[3] = second compound 0.00316 µM, first compound 0.316 µM
[4] = second compound 0.00316 µM, first compound 1 µM
[5] = second compound 0.00316 µM, first compound 3.16 µM
[6] = second compound 0.00316 µM, first compound 10 µM
[7] = second compound 0.01 µM, first compound 0.0316 µM
[8] = second compound 0.01 µM, first compound 0.1 µM
[9] = second compound 0.01 µM, first compound 0.316 µM
[10] = second compound 0.01 µM, first compound 1 µM
[11] = second compound 0.01 µM, first compound 3.16 µM
[12] = second compound 0.01 µM, first compound 10 µM
[13] = second compound 0.0316 µM, first compound 0.0316 µM
[14] = second compound 0.0316 µM, first compound 0.1 µM
[15] = second compound 0.0316 µM, first compound 0.316 µM
[16] = second compound 0.0316 µM, first compound 1 µM
[17] = second compound 0.0316 µM, first compound 3.16 µM
[18] = second compound 0.0316 µM, first compound 10 µM
[19] = second compound 0.1 µM, first compound 0.0316 µM
[20] = second compound 0.1 µM, first compound 0.1 µM
[21] = second compound 0.1 µM, first compound 0.316 µM
[22] = second compound 0.1 µM, first compound 1 µM
[23] = second compound 0.1 µM, first compound 3.16 µM
[24] = second compound 0.1 µM, first compound 10 µM
[25] = second compound 0.316 µM, first compound 0.0316 µM
[26] = second compound 0.316 µM, first compound 0.1 µM
[27] = second compound 0.316 µM, first compound 0.316 µM
[28] = second compound 0.316 µM, first compound 1 µM
[29] = second compound 0.316 µM, first compound 3.16 µM
[30] = second compound 0.316 µM, first compound 10 µM
[31] = second compound 1 µM, first compound 0.0316 µM
[32] = second compound 1 µM, first compound 0.1 µM
[33] = second compound 1 µM, first compound 0.316 µM
[34] = second compound 1 µM, first compound 1 µM
[35] = second compound 1 µM, first compound 3.16 µM
[36] = second compound 1 µM, first compound 10 µM
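Further: spheroids exposed to compounds for seven days before readout.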

CC(Cn1ccc(-c2ccc(C#N)c(Cl)c2)n1)NC(=O)c1cc(C(C)O)[nH]n1 (centres undefined) + CC(Nc1ccc2c(c1)OCCn1cc(N3C(=O)OCC3C(F)F)nc1-2)C(N)=O
inactive: viability, T/C [1] 118% | viability, T/C [2] 111% | viability, T/C [3] 126% | viability, T/C [4] 117% | viability, T/C [5] 84.7% | viability, T/C [6] 99.2% | viability, T/C [7] 92.7% | viability, T/C [8] 106% | viability, T/C [9] 77.4% | viability, T/C [10] 91.4% | viability, T/C [11] 90.6% | viability, T/C [12] 90.5% | viability, T/C [13] 89.8% | viability, T/C [14] 99.9% | viability, T/C [15] 97.8% | viability, T/C [16] 93% | viability, T/C [17] 95% | viability, T/C [18] 75.2% | viability, T/C [19] 111% | viability, T/C [20] 88.9% | viability, T/C [21] 81.1% | viability, T/C [22] 78.6% | viability, T/C [23] 91.1% | viability, T/C [24] 82.4% | viability, T/C [25] 80% | viability, T/C [26] 49.7% | viability, T/C [27] 84.5% | viability, T/C [28] 63.6% | viability, T/C [29] 63.7% | viability, T/C [30] 78.8% | viability, T/C [31] 64.2% | viability, T/C [32] 61.2% | viability, T/C [33] 66.1% | viability, T/C [34] 62.8% | viability, T/C [35] 55.7% | viability, T/C [36] 49.8%
< 5.00: pIC50 (second compound 0.00316 µM) | pIC50 (second compound 0.01 µM) | pIC50 (second compound 0.0316 µM) | pIC50 (second compound 0.1 µM) | pIC50 (second compound 0.316 µM) | pIC50 (second compound 1 µM)

Cn1nccc1Nc1nccc(-c2ccn(C(CO)c3ccc(Cl)c(F)c3)c(=O)c2)n1 (centres undefined) + CC(Nc1ccc2c(c1)OCCn1cc(N3C(=O)OCC3C(F)F)nc1-2)C(N)=O
5.68: pIC50 (second compound 0.316 µM)
5.00: pIC50 (second compound 0.01 µM)
inactive: viability, T/C [1] 91.7% | viability, T/C [2] 81.7% | viability, T/C [3] 112% | viability, T/C [4] 104% | viability, T/C [5] 78.7% | viability, T/C [6] 69.7% | viability, T/C [7] 108% | viability, T/C [8] 104% | viability, T/C [9] 105% | viability, T/C [10] 102% | viability, T/C [11] 75.8% | viability, T/C [12] 49.9% | viability, T/C [13] 101% | viability, T/C [14] 86.4% | viability, T/C [15] 92.4% | viability, T/C [16] 104% | viability, T/C [17] 75.7% | viability, T/C [18] 74.3% | viability, T/C [19] 102% | viability, T/C [20] 77.5% | viability, T/C [21] 102% | viability, T/C [22] 90.1% | viability, T/C [23] 87.4% | viability, T/C [24] 28.6% | viability, T/C [25] 81.5% | viability, T/C [26] 88.9% | viability, T/C [27] 86% | viability, T/C [28] 64.6% | viability, T/C [29] 41.9% | viability, T/C [30] 16.9% | viability, T/C [31] 67% | viability, T/C [32] 64% | viability, T/C [33] 70.6% | viability, T/C [34] 53.6% | viability, T/C [35] 47.6%
active: viability, T/C [36] 6.4%
5.67: pIC50 (second compound 1 µM)
5.18: pIC50 (second compound 0.1 µM)
< 5.00: pIC50 (second compound 0.00316 µM) | pIC50 (second compound 0.0316 µM)
